Source: US12115218B2 (priority 2018, dated 2024)
Structures can show the parent of a compound that is named as a salt.

Test system: Inactivated porcine circovirus type 2 vaccine (SH strain) antigen
Design: species or system mice
Settings: mouse, in vivo

Row | Compound | Antibody titers in mice
1 | c1ccc([C@H]2CN3CCSC3=N2)cc1 [levamisole aqueous solution, levamisole hydrochloride] | no adjuvant synergistic effect was produced
2 | polyinosinic acid-polycytidylic acid | no adjuvant synergistic effect was produced
